Laboratory results from patent US4996227A, “3-(heteroarylalkyene)- and 3-(arylalkylene)-2,4(3H,5H)-heterocyclic diones as cancer chemotherapy drugs” (priority 1989, dated 1991).

Experiments:
Assay type in all cases: cell-based
[1] = test system: KS62 strain stem-cell human leukemia cells; assay: Inhibition of human leukemia cell growth in vitro, as done in Example 3; settings: for inhibition at 1 µg/mL / inhibition at 5 µg/mL / inhibition at 10 µg/mL: Homo sapiens
Procedure: A conventionally available cell line (K562) derived from human chronic granulocytic leukemia was employed in an in vitro procedure. The leukemia cell line was cultured in a suspension of RPMI 1640 plus 10% fetal calf serum. All initial cell concentrations for the cultures were 0.65 times 10^5 cells/ml. Four separate suspension cultures were employed with the first suspension culture having no additions. The second suspension culture included 100 microliters of the solvent DMSO per 10 ml of culture (control). The third culture contained 1 ug/ml of 3[[5-methyl-2 thienyl]methylene]-2, 4 (3H, 5H) furandione and the fourth culture contained 1 ug/ml of 3[[3-methyl-2-thienyl]methylene]-2, 4 (3H, 5H) furandione. The cell concentration of each of the four cultures was determined. After three days and again after five days.
In this example, aliquots of 1.0, 5.0 and 10.0 mcg/ml of each of the family compounds was prepared and assayed against KS62 strain stem-cell human leukemia cells in an in vitro procedure as done in Example 3 above.

human tumor H5337 COLON = assay: Human Tumor Stem Cell Assay, colony growth after one hour exposure; settings: 1 h
Description: (§1) The in vitro Human Tumor Stem Cell Assay procedure described as follows has several advantages for testing the effectiveness of chemotherapy drugs such as the 3-(heteroarylalkylene)-2,4(3H,5H)-furandiones. The first advantage is that fresh tumor cells from a variety of tumor types were used rather than a small number of cell lines which have undergone severe selection pressures as they are passed in vitro. The second advantage is that only the anchorage-independent tumor cells will form colonies in soft agar so that any non-malignant cells present in the sample will not form colonies. Perhaps the most important advantage, however, is the emphasis on cells which have the ability to form colonies. These cells, which are generally called stem cells, usually comprise only a small percentage of all tumor cells. They are thought to be the most important cells for growth and distant spread of a tumor. In particular, these cells have the potential to leave the primary tumor and form new tumors at distant sites (called metastases). It is the effectiveness against these very important stem cells that the Human Tumor Stem Cell Assay measures.
(§2) One of the 3-(heteroarylalkylene)-2,4(3H,5H)-furandione compounds, 3-[(5-methyl-2-thienyl) methylene]-2,4(3H,5H)-furandione was evaluated against a series of 10 human tumors in the in vitro Human Tumor Cell Assay, along with conventional and standard chemotherapy agents.
(§3) In the procedure, a single cell suspension was prepared from tumors excised from patients during therapeutic or diagnostic surgical procedures. The human tumor cells were exposed to known anticancer drugs or to [(5-methyl-2-thienyl)methylene]-2,4 (3H, 5H)-furandione at a low (0.2 mcg/ml) or a high (1.0 mcg/ml) concentration for one hour. […] The suspension was washed with tissue culture medium to remove the drug.
(§4) The suspension was then cultured in a double soft agar suspension. Control cells which had been treated identically, except for exposure to the drugs, were also cultured. After one to two weeks, both the tumor cells and the control cells formed colonies in the soft agar which were enumerated under a microscope. The number of colonies grown from the drug-treated cells was compared to the number of colonies grown from the control cells, and the percentage growth after exposure to the drug was calculated.
(§5) The results are illustrated in Table 1, wherein the various numbers indicate the percentage of growth. For example, a small number like 6 means that the number of colonies is only 6% of the number without addition of the compound. On the other hand, a large number like 120 means that the number of colonies is 20% greater with the compound than without.
(§6) Of the nine tumors for which the higher concentration (1.0 mcg/ml) of the furandione was used, five gave inhibition of colony growth corresponding to borderline sensitive (30-50% growth) and four gave inhibition corresponding to sensitivity (0-30% growth). Clinical drugs are normally tested at 10% of their peak plasma concentration. For the standard chemotherapy drugs shown in Table 1, the low concentration (LO) corresponds to this 10% level, and the high concentration (HI) is at 50% of the peak plasma concentration. Of the same nine tumors, only two would have been rated as sensitive or borderline sensitive to any of the other clinical drugs tested.

human tumor H5349 BREAST = assay: as above; settings: 1 h
Description: as §1, §2, §3, §4, §5, §6

human tumor H5319 BREAST = assay: as above; settings: HI: furandione 1.0 mcg/ml; standard drugs 50% of peak plasma concentration; 1 h
Description: as §1, §2, §3, §4, §5, §6

[2] = test system: human tumor H5322 STOMACH; assay: as above; settings: 1 h
Description: as §1, §2, §3, §4, §5, §6

human tumor H5331 OVARY = assay: as above; settings: 1 h
Description: as §1, §2, §3, §4, §5, §6

[3] = test system: human tumor H5325 SARCOMA; assay: as above; settings: 1 h
Description: as §1, §2, §3, §4, §5, §6

human tumor H5330 THYMUS = assay: as above; settings: 1 h
Description: as §1, §2, §3, §4, §5, §6

human tumor H5318 OVARY = assay: as above; settings: HI: furandione 1.0 mcg/ml; standard drugs 50% of peak plasma concentration; 1 h
Description: as §1, §2, §3, §4, §5, §6

[4] = LO: furandione 0.2 mcg/ml, standard drugs 10% of peak plasma concentration
[5] = HI: furandione 1.0 mcg/ml, standard drugs 50% of peak plasma concentration

Row | Compound | inhibition at 1 µg/mL ([1]; 1.0 mcg/ml) [%] | inhibition at 5 µg/mL ([1]; 5.0 mcg/ml) [%] | inhibition at 10 µg/mL ([1]; 10.0 mcg/ml) [%] | further results
1 | CCOC(=O)c1ccc(C=C2C(=O)OC(C)(C)C2=O)s1 [Compound 61, 3-(5-carboxyethyl-2-thienyl)methylene1-5.5-dimethyl 11-2,4(3H)furandione] | 0 | 18 | 42 | –
2 | O=C1COC(=O)C1=Cc1ccc(N2CCCCC2)s1 [Compound 56] | – | – | – | % Inhibition ([1]; 1.0 mcg/ml): 0%; % Inhibition ([1]; 5.0 mcg/ml): 0%; % Inhibition ([1]; 10.0 mcg/ml): 0%
3 | CCOC(=O)c1ccc(C=C2C(=O)COC2=O)s1 [Compound 45, 3-[(5-ethoxycarbonyl-2-thienyl)-methylene]-2,4(3H,5H) -furandione] | 0 | 0 | 100 | –
4 | Cc1ccc(C=CC=C2C(=O)CNC2=O)s1 [Compound 67, 3-[(5-methyl-2-thienyl)propylenediene]-2,4(3H,5H) pyrrolidinedione] | 0 | 0 | 94 | –
5 | Cc1ccc(C=C2C(=O)OC(C)(C)C2=O)s1 [Compound 58] | 51 | 97 | 100 | –
6 | O=c1[nH]cc(F)c(=O)[nH]1 [Compound 5FU, 5FLUORACIL] | – | – | – | percentage of growth (colonies vs control) (human tumor H5337 COLON; [4]): 62%; percentage of growth (colonies vs control) (human tumor H5349 BREAST; [5]): 117%; percentage of growth (colonies vs control) (human tumor H5319 BREAST): 111%; percentage of growth (colonies vs control) [2, 5]: 79%; percentage of growth (colonies vs control) (human tumor H5331 OVARY; [5]): 51%; percentage of growth (colonies vs control) (human tumor H5331 OVARY; [4]): 94%; percentage of growth (colonies vs control) [3, 5]: 83%
7 | O=C1COC(=O)C1=Cc1ccc(Cl)c(Cl)c1 [Compound 55, 3-[(3,4-dichloro-1-phenyl)methylene]-2,4(3H,5H) -furandione] | – | – | – | % Inhibition ([1]; 1.0 mcg/ml): 0%; % Inhibition ([1]; 5.0 mcg/ml): 0%; % Inhibition ([1]; 10.0 mcg/ml): 0%
8 | CCOC(=O)c1ccc(C=C2C(=O)CNC2=O)s1 [Compound 65] | 7 | 32 | 75 | –
9 | Cc1ccsc1C=C1C(=O)COC1=O [Compound 51, 3-[(3-methyl-2-thienyl)methylene]-2.4(3H.5H)-furandione] | 37 | 100 | 100 | –
10 | O=C1COC(=O)C1=Cc1ccc(C(=O)O)s1 [Compound 50, 3-[(5-carboxy-2-thienyl)-methylene]-2,4(3H,5H)-furandione] | 0 | 0 | 0 | –
11 | CN(C)/N=N/c1[nH]cnc1C(N)=O [DTIC, DACARBAZINE] | – | – | – | percentage of growth (colonies vs control) (human tumor H5330 THYMUS; [5]): 59%; percentage of growth (colonies vs control) (human tumor H5330 THYMUS; [4]): 91%
12 | N[C@@H](Cc1ccc(N(CCCl)CCCl)cc1)C(=O)O [MPL, MELPHALAN] | – | – | – | percentage of growth (colonies vs control) (human tumor H5337 COLON; [5]): 58%; percentage of growth (colonies vs control) (human tumor H5337 COLON; [4]): 76%; percentage of growth (colonies vs control) (human tumor H5330 THYMUS; [5]): 92%; percentage of growth (colonies vs control) (human tumor H5330 THYMUS; [4]): 31%; percentage of growth (colonies vs control) (human tumor H5349 BREAST; [5]): 65%; percentage of growth (colonies vs control) (human tumor H5349 BREAST; [4]): 63%; percentage of growth (colonies vs control) (human tumor H5319 BREAST): 85%; percentage of growth (colonies vs control) [2, 5]: 61%; percentage of growth (colonies vs control) [2, 4]: 54%; percentage of growth (colonies vs control) (human tumor H5331 OVARY; [5]): 76%; percentage of growth (colonies vs control) [3, 5]: 12%
13 | O=C1CNC(=O)C1=Cc1ccc(N2CCCCC2)s1 [Compound 68, 3-(5-N-piperdyl-2-thienyl)methylene1-2.4(3H.5H) pyrrolidinedione] | – | – | – | % Inhibition ([1]; 1.0 mcg/ml): 0%; % Inhibition ([1]; 5.0 mcg/ml): 0%; % Inhibition ([1]; 10.0 mcg/ml): 0%
14 | O=C1COC(=O)C1=Cc1ccc(I)s1 [Compound 48, 3-[(5-iodo-2-thienyl)-methylene]-2.4(3H,5H)-furandione] | 0 | 0 | 98 | –
15 | CN(C)c1ccc(C=C2C(=O)COC2=O)cc1 [Compound 57] | 17 | 94 | 96 | –
16 | O=C1COC(=O)C1=CC=Cc1ccc(Br)s1 [Compound 54] | 27 | 99 | 100 | –
17 | Cc1ccc(C=CC=C2C(=O)COC2=O)s1 [Compound 53, 3-[(5-methyl-2-thienyl)propylenediene)-2,4(3H,5H)-furandione] | 0 | 71 | 99 | –
18 | CC1(C)OC(=O)C(=Cc2ccc(I)s2)C1=O [Compound 59, 3-[(5-iodo-2-thienyl)methylene]-5.5-dimethyl-2,4 (3H)furandione] | 1 | 37 | 94 | –
19 | COc1ccc(C=C2C(=O)COC2=O)c(OC)c1 [Compound 52, 3-[(2,4-dimethoxy-1-phenyl)methylene]-2,4(3H,5H)-furandione] | 8 | 38 | 95 | –
20 | Cc1ccc(C=C2C(=O)CSC2=O)s1 [Compound 69] | 13 | 41 | 100 | –
21 | O=C1CNC(=O)C1=Cc1ccc(Br)s1 [Compound 64] | 0 | 0 | 0 | –
22 | Cc1ccc(C=C2C(=O)CNC2=O)s1 [Compound 63, 3-[(5-methyl-2-thienyl)methylene] -2,4(3H.5H) pyrrolidinedione] | 0 | 0 | 0 | –
23 | CN(C)c1nc(N(C)C)nc(N(C)C)n1 [HXM, HEXAMETHYLMELAMINE] | – | – | – | percentage of growth (colonies vs control) (human tumor H5318 OVARY): 102%; percentage of growth (colonies vs control) (human tumor H5331 OVARY; [5]): 84%
24 | O=C1COC(=O)C1=Cc1ccc(Br)s1 [Compound 49] | 0 | 0 | 98 | –
25 | CC1(C)OC(=O)C(=Cc2ccc(Br)s2)C1=O [Compound 60] | 0 | 96 | 100 | –
26 | Cc1ccsc1C=C1C(=O)CNC1=O [Compound 66, 3-(3-methyl-2-thienyl)methylene1-2,4(3H,5H) pyrrolidinedione] | 0 | 15 | 54 | –
27 | ACTINOMYCEN D | – | – | – | percentage of growth (colonies vs control) [3, 5]: 22%; percentage of growth (colonies vs control) [3, 4]: 6%
28 | O=C1CSC(=O)C1=Cc1ccc(Br)s1 [Compound 70, 3-[(5-bromo-2-thienyl)methylene]-2.4(3H,5H)-1-thiophene dione] | 22 | 30 | 54 | –
29 | COc1cc([C@@H]2c3cc4c(cc3[C@@H](O[C@@H]3O[C@@H]5CO[C@@H](C)O[C@H]5[C@H](O)[C@H]3O)[C@H]3COC(=O)[C@H]23)OCO4)cc(OC)c1O [VP16] | – | – | – | percentage of growth (colonies vs control) (human tumor H5330 THYMUS; [5]): 77%
30 | Cc1ccsc1C=C1C(=O)OC(C)(C)C1=O [Compound 62, 3[(3-methyl-2-thienyl)methylene]-5,5dimethyl-2,4(3H,5H) furandione] | 6 | 99 | 100 | –
